What follows are molecules tested against T1, HIV-1 protease (Q7S mutant form) (Human immunodeficiency virus type 1 group M subtype B, UniProt P04585, Q495S) (assay: HIV-1 Protease RET assay). Details: Ki, unit inferred.
T1 construct: made in house
Format: biochemical
Method: Ki's for the inhibitors of HIV-1 protease were determined using a resonance energy transfer (RET) assay. […] This enzyme is first partially purified as inclusion bodies from cell lysate. It is then solublized in 8M urea and passed through a Q-Sepharose column (Pharmacia) for further purification. To refold this protein, samples containing Q7S is dialyzed into 50 mM sodium phosphate pH 7.0, 50 mM NaCl, 10 mM DTT, and 10% glycerol.
The commercially available peptide substrate (Molecular Probes Cat. # H-2930) RE(EDANS)SQNYPIVQK(DABCYL)R is used to assess activity and Ki's. This peptide is cleaved quantitatively by HIV-1 Pr at the Tyr-Pro bond. The EDANS fluorophore absorbs at 340 nm and emits at 490 nm. The reaction is carried out in a 96 well plate in a total volume of 100 µL and is run for 12 minutes at 37 C under steady-state conditions with 5 µM substrate and 2 nM active dimer enzyme concentration. The literature value Km for this substrate and enzyme is 103+/−8 µM (See Matayoshi, et al., “Novel Fluorogenic Substrates for Assaying Retroviral Proteases by Resonance Energy Transfer,” Science 247, 954 (1990)). The buffer for this reaction is 0.1M sodium acetate pH 4.8, 1M NaCl, 1 mM EDTA, 5 mM dithiothreitol, 10% dimethyl sulfoxide and 1 mg/ml bovine serum albumin. Inhibition curves are fit using the Morrison tight binding equation.

Row | SMILES | Ki [nM]
1 | Cc1ccccc1CNC(=O)[C@@H]1N(C(=O)[C@@H](O)[C@H](Cc2ccccc2)NC(=O)CSc2c(C)cccc2C)CSC1(C)C | 422
2 | Cc1ccccc1CNC(=O)[C@H]1N(C(=O)[C@@H](O)[C@H](Cc2ccccc2)NC(=O)OC2CCC3CCCC3C2)CSC1(C)C (stereo partly shown) | 148
3 | Cc1ccccc1CNC(=O)[C@H]1N(C(=O)[C@@H](O)[C@H](Cc2ccccc2)NC(=O)Oc2ccc(Cl)cc2)CSC1(C)C | 468
4 | Cc1ccccc1CNC(=O)[C@H]1N(C(=O)[C@@H](O)[C@H](Cc2ccccc2)NC(=O)Oc2ccccc2)CSC1(C)C | 368
5 | Cc1ccccc1CNC(=O)[C@H]1N(C(=O)[C@@H](O)[C@H](Cc2ccccc2)NS(=O)(=O)c2ccccc2)CSC1(C)C | 152
6 | CC1(C)SCN(C(=O)[C@@H](O)[C@H](Cc2ccccc2)NC(=O)[C@@H]2CCCO2)[C@@H]1C(=O)NC[C@H]1CCCO1 | 30
7 | CC1(C)SCN(C(=O)[C@@H](O)[C@H](Cc2ccccc2)NC(=O)c2cccc3c2CCN3)[C@@H]1C(=O)NCc1cccs1 | 6.8
8 | CC1(C)SCN(C(=O)[C@@H](O)[C@H](Cc2ccccc2)NC(=O)CSc2nc[nH]n2)[C@@H]1C(=O)NCc1cccs1 | 13.9
9 | CC(C)(C)OC(=O)N[C@@H](Cc1ccccc1)[C@H](O)C(=O)N1CSC(C)(C)[C@H]1C(=O)NCc1ccccc1 | 21
10 | Cc1ccccc1CNC(=O)[C@H]1N(C(=O)[C@@H](O)[C@H](Cc2ccccc2)NC(=O)COc2cccc3ncccc23)CSC1(C)C | 14.2
11 | Cc1ccccc1CNC(=O)[C@H]1N(C(=O)[C@@H](O)[C@H](Cc2ccccc2)NC(=O)COc2cccc3cnccc23)CSC1(C)C | 21
12 | CC(C)(C)OC(=O)N[C@@H](Cc1ccccc1)[C@H](O)C(=O)N1CSC(C)(C)C1C(=O)NCc1ccccc1Cl (stereo partly shown) | 20
13 | CC(C)(C)OC(=O)N[C@@H](Cc1ccccc1)[C@H](O)C(=O)N1CSC(C)(C)C1C(=O)NCc1c(F)cccc1F (stereo partly shown) | 54
14 | COc1ccc(CNC(=O)C2N(C(=O)[C@@H](O)[C@H](Cc3ccccc3)NC(=O)OC(C)(C)C)CSC2(C)C)cc1 (stereo partly shown) | 25
15 | Cc1ccccc1CNC(=O)[C@H]1N(C(=O)[C@@H](O)[C@H](Cc2ccccc2)NC(=O)COc2cccnc2Cl)CSC1(C)C | 7.6
16 | Cc1ccccc1CNC(=O)[C@H]1N(C(=O)[C@@H](O)[C@H](Cc2ccccc2)NC(=O)COc2cccnc2C)CSC1(C)C | 17
17 | COc1ccc(CNC(=O)N[C@@H](Cc2ccccc2)[C@H](O)C(=O)N2CSC(C)(C)C2C(=O)NCc2ccc(OC)cc2)cc1 (stereo partly shown) | 7.8
18 | COc1cccc(CNC(=O)[C@H]2N(C(=O)[C@@H](O)[C@H](Cc3ccccc3)NC(=O)C=C(C)C)CSC2(C)C)c1 | 125
19 | CC(C)=CC(=O)N[C@@H](Cc1ccccc1)[C@H](O)C(=O)N1CSC(C)(C)[C@H]1C(=O)NCc1ccccc1C | 6.1
20 | CCc1cccc(CNC(=O)[C@H]2N(C(=O)[C@@H](O)[C@H](Cc3ccccc3)NC(=O)NCc3ccc(OC)cc3)CSC2(C)C)c1 | 59
21 | C#CCOC(=O)N[C@@H](Cc1ccccc1)[C@H](O)C(=O)N1CSC(C)(C)[C@H]1C(=O)NCc1cccc(CC)c1 | 3.8
22 | COc1cccc(CNC(=O)[C@H]2N(C(=O)[C@@H](O)[C@H](Cc3ccccc3)NC(=O)OC(C)(C)C)CSC2(C)C)c1 | 68

Row | SMILES | Ki [nM]
23 | Cc1ccccc1CNC(=O)[C@H]1N(C(=O)[C@@H](O)[C@H](Cc2ccccc2)NC(=O)COc2cc(N(C)C)ccc2C)CSC1(C)C | 8.1
24 | Cc1ccccc1CNC(=O)C1N(C(=O)[C@@H](O)C(Cc2ccccc2)NC(=O)C(C)(C)C)CSC1(C)C (stereo partly shown) | 47
25 | C/C(=C/c1ccccc1)C(=O)N[C@@H](Cc1ccccc1)[C@H](O)C(=O)N1CSC(C)(C)[C@H]1C(=O)NCc1ccccc1C | 5
26 | Cc1ccccc1CNC(=O)C1N(C(=O)[C@@H](O)C(Cc2ccccc2)NC(=O)/C=C/c2c(Cl)cccc2Cl)CSC1(C)C (stereo partly shown) | 11.9
27 | Cc1ccccc1CNC(=O)C1N(C(=O)[C@@H](O)[C@H](Cc2ccccc2)NC(=O)c2ccc3ccncc3c2)CSC1(C)C (stereo partly shown) | 3.4
28 | Cc1ccccc1CNC(=O)C1N(C(=O)[C@@H](O)C(Cc2ccccc2)NC(=O)c2cnc3ccccc3c2)CSC1(C)C (stereo partly shown) | 18.1
29 | Cc1ccccc1CCC(=O)C1N(C(=O)[C@@H](O)C(Cc2ccccc2)NC(=O)C2CCC2)CSC1(C)C (stereo partly shown) | 4.4
30 | Cc1ccccc1CNC(=O)[C@H]1N(C(=O)[C@@H](O)[C@H](Cc2ccccc2)NC(=O)CNc2ccc(F)cc2)CSC1(C)C | 6
31 | Cc1ccccc1CCC(=O)C1N(C(=O)[C@@H](O)C(Cc2ccccc2)NC(=O)NCc2ccc(Cl)cc2)CSC1(C)C (stereo partly shown) | 8.2
32 | C#CC(C)OC(=O)N[C@@H](Cc1ccccc1)[C@H](O)C(=O)N1CSC(C)(C)[C@H]1C(=O)NCc1ccccc1C (stereo partly shown) | 5.4
33 | Cc1ccccc1CNC(=O)C1N(C(=O)[C@@H](O)C(Cc2ccccc2)NC(=O)OCc2cccnc2)CSC1(C)C (stereo partly shown) | 27
34 | C=CC(CC)OC(=O)N[C@@H](Cc1ccccc1)[C@H](O)C(=O)N1CSC(C)(C)[C@H]1C(=O)NCc1ccccc1C (stereo partly shown) | 92
35 | CC#CC(C)OC(=O)NC(Cc1ccccc1)[C@H](O)C(=O)N1CSC(C)(C)[C@H]1C(=O)NCc1ccccc1C (stereo partly shown) | 29
36 | Cc1c(O)cccc1C(=O)N[C@@H](Cc1ccccc1)[C@H](O)C(=O)N1CSC(C)(C)[C@H]1C(=O)NCc1cc(Cl)nc(Cl)c1 | 47
37 | Cc1ccccc1CNC(=O)[C@H]1N(C(=O)[C@@H](O)[C@H](Cc2ccccc2)NC(=O)/C=C/c2c(C)cccc2C)CSC1(C)C | 99
38 | Cc1ccccc1CNC(=O)[C@H]1N(C(=O)[C@@H](O)[C@H](Cc2ccccc2)NC(=O)C2CCNCC2)CSC1(C)C | 45
39 | Cc1ccccc1CNC(=O)[C@H]1N(C(=O)[C@@H](O)[C@H](Cc2ccccc2)NC(=O)CC(C)N)CSC1(C)C (stereo partly shown) | 108
40 | Cc1ccccc1CNC(=O)[C@H]1N(C(=O)[C@@H](O)[C@H](Cc2ccccc2)NC(=O)CC(C)NC(=O)OC(C)(C)C)CSC1(C)C (stereo partly shown) | 122
41 | Cc1ccccc1CNC(=O)[C@H]1N(C(=O)[C@@H](O)[C@H](Cc2ccccc2)NC(=O)C2=CCCCC2)CSC1(C)C | 4.7
42 | C/C=C(/C)C(=O)N[C@@H](Cc1ccccc1)[C@H](O)C(=O)N1CSC(C)(C)[C@H]1C(=O)NCc1ccccc1C | 7.6
43 | Cc1ccccc1CNC(=O)[C@H]1N(C(=O)[C@@H](O)[C@H](Cc2ccccc2)NC(=O)Cc2c(F)cccc2F)CSC1(C)C | 72
44 | Cc1ccccc1CNC(=O)[C@H]1N(C(=O)[C@@H](O)[C@H](Cc2ccccc2)NC(=O)C2CCCNC2)CSC1(C)C (stereo partly shown) | 11.5

Row | SMILES | Ki [nM]
45 | Cc1ccccc1CNC(=O)[C@H]1N(C(=O)[C@@H](O)[C@H](Cc2ccccc2)NC(=O)C2CCCN(C(=O)OC(C)(C)C)C2)CSC1(C)C (stereo partly shown) | 117
46 | Cc1ccccc1CNC(=O)[C@@H]1CSCN1C(=O)[C@@H](O)[C@H](Cc1ccccc1)NC(=O)CCc1c(C)cccc1C | 20
47 | Cc1ccccc1CNC(=O)[C@@H]1CC(F)(F)CN1C(=O)[C@@H](O)[C@H](Cc1ccccc1)NC(=O)c1cccn1C | 59
48 | Cc1c(O)cccc1C(=O)N[C@@H](Cc1ccccc1)[C@H](O)C(=O)N1CSC(C)(C)[C@H]1C(=O)NC1(C#N)CC1 | 6.2
49 | Cc1cccc(C)c1CNC(=O)[C@@H]1C[C@@H]2CCCC[C@@H]2CC1C(=O)[C@@H](O)[C@H](Cc1ccccc1)NC(=O)c1cccc(O)c1C (stereo partly shown) | 83
50 | Cc1ccccc1CNC(=O)[C@@H]1N(C(=O)[C@@H](O)[C@H](Cc2ccccc2)NC(=O)c2cccc(O)c2C)CSC12CCCCC2 | 11
51 | CCCNC(=O)[C@@H]1CC(F)(F)CN1C(=O)[C@@H](O)[C@H](Cc1ccccc1)NC(=O)O[C@H]1CCOC1 | 42
52 | CCCNC(=O)[C@@H]1CC(F)(F)CN1C(=O)[C@@H](O)[C@H](Cc1ccccc1)NC(=O)c1ccc(C)c(O)c1C | 108
53 | CCNC(=O)C1c2ccccc2CN1C(=O)[C@@H](O)[C@H](Cc1ccccc1)NC(=O)c1c(C)noc1C (stereo partly shown) | 84
54 | Cc1ccccc1CNC(=O)[C@H]1N(C(=O)[C@@H](O)[C@H](Cc2ccccc2)NC(=O)CCN)CSC1(C)C | 156
55 | Cc1ccccc1CNC(=O)[C@H]1N(C(=O)[C@@H](O)[C@H](Cc2ccccc2)NC(=O)/C=C/c2ccco2)CSC1(C)C | 60
56 | CCCNC(=O)C1CC(F)(F)CN1C(=O)[C@@H](O)[C@H](Cc1ccccc1)NC(=O)c1cccc(OC(C)=O)c1C (stereo partly shown) | 85
57 | Cc1ccccc1CNC(=O)[C@H]1N(C(=O)[C@@H](O)[C@H](Cc2ccccc2)NC(=O)CNC(=O)OC(C)(C)C)CSC1(C)C | 88
58 | Cc1ccccc1CNC(=O)[C@H]1N(C(=O)[C@@H](O)[C@H](Cc2ccccc2)NC(=O)/C=C/c2cccnc2)CSC1(C)C | 9.9
59 | Cc1ccccc1CNC(=O)[C@H]1N(C(=O)[C@@H](O)[C@H](Cc2ccccc2)NC(=O)C(C)CNC(=O)OC(C)(C)C)CSC1(C)C (stereo partly shown) | 52
60 | Cc1ccccc1CNC(=O)[C@@H]1N(C(=O)[C@@H](O)[C@H](Cc2ccccc2)NC(=O)c2cccc(O)c2C)CSC12CCC2 | 30
61 | Cc1c(C(=O)N[C@@H](Cc2ccccc2)[C@H](O)C(=O)N2CSC(C)(C)[C@H]2C(=O)N[C@@H]2C=CCCC2)ccc(F)c1O | 17.3
62 | Cc1c(O)cccc1C(=O)N[C@@H](Cc1ccccc1)[C@H](O)C(=O)C1CCC2(CCCC2)[C@@H]1C(=O)NC1=CCCCC1 (stereo partly shown) | 53
63 | Cc1c(O)cccc1C(=O)N[C@@H](Cc1ccccc1)[C@H](O)C(=O)N1CSC2(CCC2)[C@@H]1C(=O)N[C@@H]1C=CCCC1 | 12.9
64 | Cc1c(O)cccc1C(=O)N[C@@H](Cc1ccccc1)[C@H](O)C(=O)N1CSC(C)(C)C1C(=O)NCCc1ccccn1 (stereo partly shown) | 134

Reference: patent US7094909B2, “HIV protease inhibitors, compositions containing the same, their pharmaceutical uses and materials for their synthesis” (priority 2001, dated 2006)
